Patent US20250327023A1, “TAURINE SUPPLEMENTED CELL CULTURE MEDIUM AND METHODS OF USE” (Regeneron Pharmaceuticals, Inc., priority 2015, published 2025)

Tests used:
Assay type in all cases: cell-based, Chinese hamster
[1] = test system: monoclonal antibody (Ab1) producing cell line derived from CHO-K1; test: High-throughput shake flask culture, 17 days, antibody titer (Example 1A); details: 1 mM taurine at day 0
Procedure: Example 1A—High-Throughput Shake Flask Culture: 250 mL shake flasks were inoculated from a seed culture of a monoclonal antibody (Abl) producing cell line derived from CHO-K1. The inoculated cells were grown at 35.5° C. for seventeen days and fed glucose and other supplemental nutrients as needed. Cells were grown in chemically defined (hydrolysate-free and serum-free) base media. Each culture flask was either unsupplemented (Flask 1a), or supplemented with 1 mM taurine at day 0 (Flask 1 b).

[2] = test system: monoclonal antibody (Ab2) producing cell line derived from CHO-K1; test: Benchtop-scale 2L bioreactor culture, 14 days, antibody titer (Example 1B), Ab2; details: about 1 mM taurine on day 0, day 14; for Ab2 approximate titer increase relative to baseline: Bioreactor 2b vs 2a
Procedure: (§1) Example 1B—Benchtop-Scale Bioreactors: In a similar example, yet on a larger scale of production, 2L bioreactors were inoculated from a seed culture of a monoclonal antibody (Ab2, Ab3 or Ab4) producing cell line derived from CHO-K1. The inoculated cultures were grown at a temperature of 35.5° C., DO set point of 40.4% and air sparge of 22 ccm for 14 days. […] Glucose, antifoam and basal feed were supplied to the bioreactors as needed. Cultures were grown in unsupplemented medium (Bioreactor 2a, 3a, 4a) or grown in about 1 mM taurine-supplemented medium (Ab2 and Ab3) or about 3 mM taurine-supplemented medium (Ab4), added on day 0 of production (Bioreactors 2b, 3b and 4b, respectively).

[3] = test system: monoclonal antibody (Ab3) producing cell line derived from CHO-K1; test: Benchtop-scale 2L bioreactor culture, 14 days, antibody titer (Example 1B), Ab3; details: about 1 mM taurine on day 0; for Ab3 approximate titer increase at day 6 compared to unsupplemented medium collected on same day / Ab3 approximate titer increase at day 9 compared to unsupplemented medium collected on same day / Ab3 approximate titer increase relative to baseline: Bioreactor 3b vs 3a
Procedure: as §1

[4] = test system: monoclonal antibody (Ab4) producing cell line derived from CHO-K1; test: Benchtop-scale 2L bioreactor culture, 14 days, antibody titer (Example 1B), Ab4; details: about 3 mM taurine on day 0, day 14; for Ab4 approximate titer increase relative to baseline: Bioreactor 4b vs 4a
Procedure: as §1

[5] = test system: monoclonal antibody (Ab1) producing cell line derived from CHO-K1; test: Shake flask culture with varying taurine concentrations, 14 days, antibody titer (Example 2); details: for Ab1 % titer increase vs unsupplemented: day 14
Procedure: Consistency of the protein titer was tested by varying the amount of taurine added to the culture at production day 0. 250 mL shake flasks were inoculated from a seed culture of a monoclonal antibody (Ab1) producing cell line derived from CHO-K1. The inoculated cells were grown at 35.5° C. for fourteen days and fed glucose and other supplemental nutrients as needed. Cells were grown in chemically defined (hydrolysate-free and serum-free) base media. Each culture contained either no taurine (unsupplemented) or taurine at 0.1 mM, 0.3 mM, 0.5 mM, 0,7 mM, 1 mM, 3 mM, 5 mM, 7,5 mM or 10 mM concentrations.

[6] = test system: Ab1-producing CHO cells; test: Shake flask culture, taurine in seed train expansion and/or production phase, 17 days, antibody titer (Example 3A); details: day 17
Procedure: The benefits of adding taurine to the culture during the expansion seed train phase were assessed in the high-throughput shake flask model. In flask 6a (Table 6), the Ab1-producing CHO cells were thawed in chemically defined (hydrolysate-free and serum-free) base media supplemented with 1 mM taurine. Taurine concentration of basal medium was maintained at 1 mM throughout the expansion phase. During production, the culture basal medium was supplemented with 1 mM taurine on day 0. Glucose and nutrient basal feed were supplied as needed during the 17 day production. Flask 6b cells grew in taurine-free (unsupplemented) chemically defined (hydrolysate-free and serum-free) basal medium throughout the seed train expansion phase. At day 0 of production, the culture basal medium was supplemented with 1 mM taurine. For the 17 day production, glucose and nutrient basal feeds were supplied as needed.

[7] = test system: Ab1-producing CHO cells; test: Shake flask culture, varying taurine feeding schedules during production phase, antibody titer (Example 3B)
Procedure: Example 3B: Varying Taurine Feeding Schedules during Production Phase: To determine whether varying standard feeding schedules of taurine had any effect on the protein titer for taurine-supplemented cultures, additional experiments were conducted in analogous shake flask cultures growing Ab1-producing CHO cells. The cells were subjected to varying culture conditions similar to Example 2, where the feeding schedule was the same as before, glucose/nutrient basal feed was added as needed. Ab1-producing cultures were supplemented with a total of 5 mM taurine Similar productivity (7.1 g/L, 6.8 g/L and 7.0 g/L) is observed in varying taurine feeding schedules. Titer values as compared in this experiment are not statistically different (p>0.1) (see Table 7).

[8] = test system: Ab1-producing CHO cells; test: Ammonia by-product in shake flask culture (Example 4); details: taurine supplemented medium
Procedure: […] The cells were subjected to varying culture conditions similar to above where glucose/nutrient base feed was added as needed.

[9] = 0.1 mM taurine at day 0, shake flask 5b
[10] = 0.3 mM taurine at day 0, shake flask 5c
[11] = 0.5 mM taurine at day 0, shake flask 5d
[12] = 0.7 mM taurine at day 0, shake flask 5e
[13] = 1 mM taurine at day 0, shake flask 5f
[14] = 5 mM taurine at day 0, shake flask 5g
[15] = 7.5 mM taurine at day 0, shake flask 5h
[16] = 10 mM taurine at day 0, shake flask 5i

NCCS(=O)(=O)O [Taurine, 2-aminoethanesulfonic acid]
Abl Titer (average 17-day antibody titer) ([1]; 250 mL shake flask 1b, harvested day 17): 7.9 g/L
Approximate titer increase relative to baseline ([1]; day 17, Flask 1b vs unsupplemented Flask 1a): 8%
Ab2 Titer (average 14 day antibody titer) ([2]; Bioreactor 2b): 8 g/L
Ab2 approximate titer increase relative to baseline [2]: 24%
Ab2 approximate titer increase relative to baseline ([2]; listed as taurine): 24%
Ab3 Titer at day 6 ([3]; Bioreactor 3b, day 6): 1.9 g/L
Ab3 Titer at day 9 ([3]; Bioreactor 3b, day 9): 5.3 g/L
Ab3 Titer (average 14 day antibody titer) ([3]; Bioreactor 3b, day 14): 7.3 g/L
Ab3 approximate titer increase at day 6 compared to unsupplemented medium collected on same day ([3]; day 6): 12%
Ab3 approximate titer increase at day 6 compared to unsupplemented medium collected on same day ([3]; day 6, listed as taurine): 12%
Ab3 approximate titer increase at day 9 compared to unsupplemented medium collected on same day ([3]; day 9): 29%
Ab3 approximate titer increase at day 9 compared to unsupplemented medium collected on same day ([3]; day 9, listed as taurine): 29%
Ab3 approximate titer increase relative to baseline ([3]; day 14): 11%
Ab3 approximate titer increase relative to baseline ([3]; day 14, listed as taurine): 11%
Ab4 Titer (average 14 day antibody titer) ([4]; Bioreactor 4b): 5.3 g/L
Ab4 approximate titer increase relative to baseline [4]: 20%
Ab4 approximate titer increase relative to baseline ([4]; listed as taurine): 20%
Ab1 Titer (average 14-day) [5, 9]: 6.7 g/L
Ab1 % titer increase vs unsupplemented [5, 9]: 3%
Ab1 Titer (average 14-day) [5, 10]: 6.8 g/L
Ab1 % titer increase vs unsupplemented [5, 10]: 5%
Ab1 Titer (average 14-day) [5, 11]: 6.9 g/L
Ab1 % titer increase vs unsupplemented [5, 11]: 6%
Ab1 Titer (average 14-day) [5, 12]: 7.0 g/L
Ab1 % titer increase vs unsupplemented [5, 12]: 8%
Ab1 Titer (average 14-day) [5, 13]: 7.0 g/L
Ab1 % titer increase vs unsupplemented [5, 13]: 8%
Ab1 Titer (average 14-day) [5, 14]: 7.1 g/L
Ab1 % titer increase vs unsupplemented [5, 14]: 9%
Ab1 Titer (average 14-day) [5, 15]: 7.1 g/L
Ab1 % titer increase vs unsupplemented [5, 15]: 9%
Ab1 Titer (average 14-day) [5, 16]: 7.1 g/L
Ab1 % titer increase vs unsupplemented [5, 16]: 9%
Ab1 Titer (average 17-day) ([6]; 1 mM taurine in Only Production Phase, shake flask 6b): 7.8 g/L
Ab1 Titer (average 17-day) ([6]; 1 mM taurine in Seed Train and Production Phases, shake flask 6a): 7.7 g/L
Ab1 Day 14 Titer ([7]; taurine schedule: 1 mM day 0, 2 mM days 7, 10 (5 mM total)): 7.0 g/L
Ab1 Day 14 Titer ([7]; taurine schedule: 1 mM days 0, 3, 5, 7, 10 (5 mM total)): 6.8 g/L
Ab1 Day 14 Titer ([7]; taurine schedule: 5 mM day 0): 7.1 g/L
Abl Ammonia (average 17-day ammonia) [8]: 1.73 mM″
Ammonia decrease compared to unsupplemented medium ([8]; listed as taurine): 32%
